Assay results published in BigSolDB 2.1.

COc1ccc2nc(SCc3ncc(C)c(OC)c3C)[nH]c2c1
solubility (mole fraction)
Settings | in acetone | in ethanol | in ethyl acetate | in isopropanol | in methanol | in n-butanol | in n-propanol
280.35 K | 0.005 | 0.0144 | 0.0033 | 0.0032 | 0.0127 | 0.0103 | 0.0076
284.35 K | 0.0065 | 0.0189 | 0.004 | 0.0044 | 0.0178 | 0.0134 | 0.0101
288.15 K | 0.0083 | 0.0248 | 0.0049 | 0.0058 | 0.0239 | 0.0171 | 0.0134
292.25 K | 0.0108 | 0.0323 | 0.0058 | 0.0079 | 0.0322 | 0.0218 | 0.0178
296.65 K | 0.014 | 0.0412 | 0.0073 | 0.0108 | 0.0442 | 0.0292 | 0.0234
300.25 K | 0.0172 | 0.0511 | 0.0085 | 0.014 | 0.0559 | 0.0356 | 0.0296
303.15 K | 0.0203 | 0.0606 | 0.0098 | 0.0172 | 0.0668 | 0.0425 | 0.0359
307.65 K | 0.0263 | 0.0775 | 0.0122 | 0.0234 | 0.0887 | 0.0549 | 0.047
311.15 K | 0.0319 | 0.0946 | 0.0142 | 0.0286 | 0.11 | 0.0661 | 0.0567
315.15 K | 0.039 | 0.115 | 0.0165 | 0.037 | 0.138 | 0.0824 | 0.0713
319.65 K | 0.0496 | 0.141 | 0.0208 | 0.0482 | 0.172 | 0.104 | 0.0914
